Here are results for 3 molecules from patent publication US11905244B2, “Chemical modulators of store-operated calcium channels and their therapeutic applications” (The Texas A&M University System, priority 2017, dated 2024).

The structures appear in SMILES notation. “Also recorded” adds a separate entry of the source. Read-outs that look alike come from different tables or passages of the source.

The target in one assay is CRAC channel (Homo sapiens (Human), UniProt Q96D31). Put plainly: GFP-NFAT translocation-based high-content screening (TG-stimulated HeLa cells stably expressing GFP-NFAT). It counts as cell-based. To be noted: for Inhibitory activity on CRAC channel in primary screening (NFAT nucleus-to-cytosol ratio): 200 μM compound. The source says: It is known that thapsigargin (TG) can induce the CRAC channel to open resulting in the calcium influx. The elevation of calcium in cytoplasm can activate the Ca^2+-calcineurin-NFAT pathway followed by NFAT translocation from the cytoplasm to the nucleus to regulate gene transcription. Therefore, the inventors built a GFP-NFAT translocation-based high-content screening method to evaluate the activity of compounds on CRAC channel. Briefly, a HeLa cell line stably expressing GFP-NFAT was established and used, and the images after chemical stimulation in the presence of TG were acquired using an IN Cell Analyzer 6000 confocal laser imaging system, and then the GFP fluorescent intensity ratio between cytoplasm and nucleus was analyzed to reflect the inhibitory activity of compound on CRAC channel.
Sequence of CRAC channel (Q96D31 whole entry): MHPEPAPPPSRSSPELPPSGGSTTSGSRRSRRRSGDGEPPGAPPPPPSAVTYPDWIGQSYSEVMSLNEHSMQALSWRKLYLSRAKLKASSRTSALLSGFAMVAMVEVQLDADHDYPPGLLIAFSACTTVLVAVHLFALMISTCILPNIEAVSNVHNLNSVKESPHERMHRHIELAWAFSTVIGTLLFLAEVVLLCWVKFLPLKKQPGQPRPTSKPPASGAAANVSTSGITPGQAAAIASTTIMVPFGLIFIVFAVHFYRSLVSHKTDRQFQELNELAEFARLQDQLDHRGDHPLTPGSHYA
Briefly, GFP-NFAT stable cells were cultured in Dulbecco's modified eagle's medium (DMEM) supplemented with 10% FBS in 5% carbon dioxide at 37° C. When it reached 90% confluency, a cell suspension with a concentration of […] was prepared, and an amount of 2000 cells per well (25 μL/well) was seeded in 384 well plate, putting it at the room temperature for 1 h to make sure the cells distribute evenly, then the cells were incubated overnight. First, primary screening of the selected compounds was conducted. A series of compound solutions with a concentration of 200 μM in MEDM medium were prepared in a 96 well plate and then added to a 384 well plate using a Beckman Coulter automatic drug adding system, in 4 duplicates, and incubated for 30 min at 37° C. SKF was selected as the positive control. Then, 1 μM TG and 1 mM Ca^2+ were added to 384-well plate using Beckman Coulter automatic drug adding system and incubated for 20 min. Subsequently, 384 well plate was gently washed with PBS twice, and the cells were fixed with 4% PFA (25 μl per well) for 10˜15 mins at room temperature, then washed with PBS gently, added 0.5% Triton X-100 (25 μL per well), and incubated for 5 mins aFt room temperature, stained with DAPI (1 μg/mL) for 5˜10 mins at room temperature, washed with PBS and added 30 μL PBS per well to image on confocal laser imaging system (objective lens: 10×, FITC and UV). Using Pipeline Plot software (NAFT translocation protocol), the intensity of green fluorescence was analyzed in nucleus and cytosol, calculate the ratio of nucleus:cytosol, normalize TG stimulate NFAT translocation as 1 and no TG adding as 0. Finally, the data was analyzed using GraphPad Prism 5 software.

A further assay concerns calcium influx. Put plainly: Inhibitory activity on calcium influx. It counts as cell-based.
The test system of assay [1] is cytokine IL-2 expression in primary T cells. In words: Effect of compounds on cytokine expression in primary T cells (flow cytometry). The format is cell-based. The note with it: Mus musculus, T-cell. As for the experimental part:
The lymph nodes and a spleen from mouse were collected, and then the immune cells were induced to differentiate towards Th1 cells in presence of α-CD3, α-CD28, IL-12, and IL-2. After obtaining Th1 cells, the cells were amplified and then the cells were treated with drugs. The expression level of the cytokine was analyzed using flow cytometry.

Assay [2] relates to IL-2 and IFNγ expression in Jurkat cell. In words: Cytokine expression in Jurkat cells. The format is cell-based.
Assay [3] relates to MDA-MB-231 breast cancer cells. Put plainly: Migration assay (wound healing assay). The format is cell-based. The note with it: MDA-MB-231, wound healing assay. As for the experimental part: The effect of compounds on inhibiting migration was evaluated using wound healing assay. Briefly, cells were seeded in a six well-plate, and a wound was generated by scratching the cell monolayer with a 200 μL pipette tip. Then, cells were continued to be cultured in the presence or absence of compounds, and the photographic recording was performed at 0 h, 24 h, and 48 h respectively. The number of the migrated cells was calculated with ImageJ software.

For assay [4], the system named is MDA-MB-231 breast cancer cells. In words: Invasion assay. The format is cell-based.
Assay [5] deals with azoxymethane (AOM)-induced mouse colon cancer model. Put plainly: Azoxymethane (AOM)-induced mouse colon cancer model. The format is in vivo. To be noted: treated for 8 weeks. As for the experimental part: To induce colon cancer in situ, mice (four month old) were randomly divided into three groups: (1) AOM control group; (2) Compound 53 group, (3) CsA group, and injected with AOM subcutaneously (10 mg/kg body weight) once a week for 4 weeks. Then, Compound 53 and CsA group were treated with Compound 53 and CsA respectively for 8 weeks, and the control group was treated with 0.9% NaCl solution. Then, mice were killed and the colon was isolated. The number of the tumors formed was analyzed.

Another assay concerns Jurkat cells. In words: Cell cycle analysis in Jurkat cells. It counts as cell-based. The note with it: compared to control. As for the experimental part: (§1) Cells were treated with or without compounds at 37° C. with 5% CO2. After incubation for 24 h, cells were collected by trypsinization and fixed with cold 95% ethanol over 30 min at 4° C. Subsequently, the cell suspension was centrifuged at 1000 rmp/5 min, and washed with PBS one time. The cell pellets were resuspended in 0.4 mL PBS and treated with RNAase A (0.1 mg/mL) at 37° C. for 30 min. Then, propidium iodine (50 μg/mL, PI) was added and the cells were stained for 30 min at 37° C. Analysis of cellular DNA content was performed by flow cytometry.

The subject of the next assay is U87 cells. In words: Cell cycle analysis in U87 cells. It counts as cell-based. To be noted: compared to control. How it is done: as §1
Where [6] appears, read: GFP-NFAT translocation assay, read-out: IC50 on CRAC channel.
[7] abbreviates: Table 2, unit inferred, read-out: IC50 of the compounds (inhibitory activity on CRAC channel).

The term IC50 denotes the concentration at which inhibition is half-maximal. With `CCN/C(=N\c1cc(Cl)cc(Cl)c1)S[C@H]1CC(=O)N(c2ccc(C(=O)O)cc2)C1=O` [Compound 41], the “Inhibitory activity on CRAC channel in primary screening (NFAT nucleus-to-cytosol ratio)” value on CRAC channel is listed as “good activity”. The half-inhibitory concentration (IC50) on CRAC channel (setting [6]) was approximately 100 µM; at CRAC channel (Table 1, hits from virtual screening, unit inferred, read-out: IC50 Value) it was 279 µM. The “Inhibitory activity on calcium influx” value with calcium influx is “obvious inhibitory activity”.

With `COC(=O)c1ccc(N2C(=O)CC(S/C(=N\c3ccccc3)NCCc3ccc(S(N)(=O)=O)cc3)C2=O)cc1` (stereo not shown) [Compound 53], the “Inhibitory activity on CRAC channel in primary screening (NFAT nucleus-to-cytosol ratio)” value at CRAC channel is “good inhibition”. In addition, the IC50 on CRAC channel (setting [6]) was 8.14 µM; at CRAC channel (setting [7]), 13 µM; in [1] it was 15.6 ± 1.17 µM. For the same molecule, in assay [2], the “IL-2 and IFNγ (cytokine) expression” value was “inhibit IL-2 and IFNγ expression; also recorded: inhibits cytokine expression”. Also, in [3], the Cell migration entry is “greatly inhibit”. In assay [4], the Cell invasion entry is “greatly inhibit”. Moreover, in assay [5], the “Antitumor activity compared with positive control drug CsA” value was “better than the positive control drug CsA”. The “Number of the formed tumors in the colon” value in [5] is “greatly decrease the number of the formed tumors; also recorded: reducing the number of tumors formed compared to the control group”.

In the case of `CCOC(=O)c1ccc(N2C(=O)CC(S/C(=N/c3ccccc3)NC3CC3)C2=O)cc1` (stereo not shown) [Compound 87], the concentration for half-maximal inhibition (IC50) turned out to be 0.95 µM on CRAC channel (setting [7]) and 0.86 ± 0.12 µM in [1]. Moreover, the “Effect on cell cycle” value in the assay with Jurkat cells and with U87 cells was “cell cycle arrest at GO stage” throughout. The Cell migration result in [3] is given as “greatly inhibit”. Moreover, the Cell invasion entry in assay [4] was “greatly inhibit”.
